Measured values as given in ChEMBL document CHEMBL3576807, “Crystal Structures of mPGES-1 Inhibitor Complexes Form a Basis for the Rational Design of Potent Analgesic and Anti-Inflammatory Therapeutics” (J Med Chem, 2015).

Assays:
[1] = biological target: T1, Prostaglandin E synthase (Homo sapiens, UniProt O14684); assay: Inhibition of purified mPGES-1 (1 to 152) (unknown origin) extracted from detergent-solubilized baculovirus-infected insect Sf9 cell membranes using PGH2 as substrate assessed as PGE2 production after 2.5 mins by LC/MS analysis
T1 sequence (O14684 whole entry): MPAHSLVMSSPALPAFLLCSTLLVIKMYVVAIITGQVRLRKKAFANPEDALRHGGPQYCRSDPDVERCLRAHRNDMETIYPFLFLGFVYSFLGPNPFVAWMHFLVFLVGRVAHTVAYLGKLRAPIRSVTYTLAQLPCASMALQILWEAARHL

[2] = biological target: T1, Prostaglandin E synthase; assay: Inhibition of recombinant human mPGES-1 expressed in human 293E cell microsomes using PGH2 as substrate assessed as PGE2 production after 2.5 mins by LC/MS analysis
[3] = biological target: T2, Prostaglandin E synthase (Homo sapiens) (UniProt O14684); assay: Binding affinity to mPGES-1 (unknown origin) assessed as increase in protein aggregation temperature at 0.1 mM by differential static light scattering method
T2 sequence (whole entry): T1 sequence (O14684 whole entry)

Structure (SMILES)	IC50 [1]	IC50 [2]	deltaT [3]
CC(C)Oc1ccc(-n2c(C(=O)O)cc3cc(-c4ccc(C(C)(C)C)cc4)ccc32)cc1	2580 nM	216 nM	7.3 °C
Fc1cccc(Cl)c1-c1nc(-c2ccc(C#Cc3ccc(C(F)(F)F)cc3)nc2)c(Br)[nH]1	3940 nM	7 nM	7.8 °C
